Key:
KRAS G12D = KRAS G12D (Homo sapiens (Human), UniProt P01116, G12D); assay: KRAS G12D LoEnz Biochemical Assay, BODIPY-GDP Exchange TR-FRET (SOS1-mediated nucleotide exchange); settings: read-out: KRas (G12D) GDP HTRF IC50
KRAS WT = KRAS WT (Homo sapiens (Human), UniProt P01116); assay: KRAS WT Biochemical Assay, BODIPY-GDP Exchange TR-FRET (Example 502; 0.06 nM KRAS WT, 15 nM GDP, 300 nM SOS1, 120-minute incubation); settings: read-out: KRas HTRF IC50
Description: Example 502: KRAS WT Biochemical Assay, BODIPY-GDP Exchange TR-FRET. Biochemical compound potencies are assessed by evaluating inhibition of SOS1-mediated nucleotide exchange in KRAS WT. In this assay, the SOS1-promoted exchange of fluorescently-labeled GDP (BOPIDY-GDP) is monitored by time-resolved fluorescence resonance energy transfer (TR-FRET). Compounds solubilized in DMSO are dispensed as concentration series into 384-well white assay plates. A preformed complex of 0.06 nM biotin-tagged recombinant human KRAS WT, 15 nM GDP and 0.06 nM terbium-labeled streptavidin (CisBIO) prepared in 10 uL/well assay buffer (20 mM HEPES, pH 7.5, 50 mM NaCl, 10 mM MgCl2, 0.01% Tween-20 and 1 mM dithiothreitol) is added and allowed to incubate for 10-minutes at room temperature. The reaction is initiated with the addition of 5 uL 300 nM recombinant human SOS1 and 300 nM BODIPY-GDP in assay buffer. After a 120-minute incubation, the fluorescence is measured with excitation at 337 nm and emission at 490 and 520 nm. The TR-FRET ratio is determined as the fluorescence at 520 nm divided by the fluorescence at 490 nm multiplied by 10,000. The results are normalized to percent inhibition based on control samples: DMSO (0% inhibition) and control compound at a concentration that inhibits completely (100% inhibition). The normalized TR-FRET results are plotted against compound concentration, and the data are fit to a 4-parameter Hill equation to determine the IC50 values.

Chain of KRAS WT (P01116-2 other isoform, or with tags, fused parts or gaps): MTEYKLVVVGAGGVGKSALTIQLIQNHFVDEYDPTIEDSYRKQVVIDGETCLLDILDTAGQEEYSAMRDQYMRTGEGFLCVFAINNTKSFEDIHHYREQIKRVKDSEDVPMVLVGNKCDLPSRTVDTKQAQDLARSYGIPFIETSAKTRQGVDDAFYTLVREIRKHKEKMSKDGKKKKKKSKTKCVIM
Chain of KRAS G12D (P01116-2 other isoform, or with tags, fused parts or gaps G12D): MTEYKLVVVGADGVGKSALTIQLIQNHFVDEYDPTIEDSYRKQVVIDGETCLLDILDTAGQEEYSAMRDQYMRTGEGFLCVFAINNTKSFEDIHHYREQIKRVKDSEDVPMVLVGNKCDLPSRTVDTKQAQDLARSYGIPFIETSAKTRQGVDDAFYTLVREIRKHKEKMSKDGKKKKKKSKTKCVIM

Structure (SMILES)	IC50 (KRAS G12D) [nM]	IC50 (KRAS WT) [nM]
C[C@@H]1Oc2nc(-c3nc(N)c(F)cc3C(F)(F)F)c(F)c3nc(OC[C@@]45CCCN4CC4(CC4(F)F)C5)nc(c23)N2C[C@H]3CC[C@H](N3)[C@@H]12 (stereo partly drawn) [Compound 86, 6-((5S,5aS,6S,9R)-12-(((7a′S)-2,2-difluorodihydro-1′H,3′H-spiro-[cyclopropane-1,2′-pyrrolizin]-7a′(5′H)-yl)methoxy)-1-fluoro-5-methyl-5a,6,7,8,9,10-hexahydro-5H-4-oxa-3,10a,11,13,14-pentaaza[6,9]methanonaphtho[1,8-ab]heptalen-2-yl)-3-fluoro-5-(trifluoromethyl)pyridin-2-amine]	4.67	248
COc1cc2ccccc2c(-c2nc3c4c(nc(OC[C@]56CCN5CC(F)(F)C6)nc4c2F)N2C[C@H]4CC[C@H](N4)[C@H]2[C@H](C)O3)n1 [Compound 89, (5S,5aS,6S,9R)-12-(((R)-3,3-Difluoro-1-azabicyclo[3.2.0]heptan-5-yl)methoxy)-1-fluoro-2-(3-methoxyisoquinolin-1-yl)-5-methyl-5a,6,7,8,9,10-hexahydro-5H-4-oxa-3,10a,11,13,14-pentaaza-6,9-methanonaphtho[1,8-ab]heptalene]	912	1650
C[C@@H]1Oc2nc(-c3c(C(F)(F)F)cc(F)c(N)c3F)c(F)c3nc(OC[C@@]45CCCN4C[C@H](F)C5)nc(c23)N2C[C@H]3CC[C@H](N3)[C@@H]12 [Compound 90, 2,6-Difluoro-3-((5S,5aS,6S,9R)-1-fluoro-12-(((2R,7aS)-2-fluorotetrahydro-1H-pyrrolizin-7a(5H)-yl)methoxy)-5-methyl-5a,6,7,8,9,10-hexahydro-5H-4-oxa-3,10a,11,13,14-pentaaza-6,9-methanonaphtho[1,8-ab]heptalen-2-yl)-4-(trifluoromethyl)aniline]	0.47	71.6
Cc1c(F)c(N)c(F)c(-c2nc3c4c(nc(OC[C@@]56CCCN5C[C@H](F)C6)nc4c2F)N2C[C@H]4CC[C@H](N4)[C@H]2[C@H](C)O3)c1C(F)(F)F [Compound 91, 2,6-Difluoro-3-((5S,5aS,6S,9R)-1-fluoro-12-(((2R,7aS)-2-fluorotetrahydro-1H-pyrrolizin-7a(5H)-yl)methoxy)-5-methyl-5a,6,7,8,9,10-hexahydro-5H-4-oxa-3,10a,11,13,14-pentaaza-6,9-methanonaphtho[1,8-ab]heptalen-2-yl)-5-methyl-4-(trifluoromethyl)aniline]	0.182	5.71
Cc1c(F)c(N)c(F)c(-c2nc3c4c(nc(OC[C@@H]5CC[C@H]6COCCN65)nc4c2F)N2C[C@H]4CC[C@H](N4)[C@H]2[C@H](C)O3)c1C(F)(F)F [Compound 96, 2,6-Difluoro-3-((5S,5aS,6S,9R)-1-fluoro-12-(((6S,8aS)-hexahydro-1H-pyrrolo[2,1-c][1,4]oxazin-6-yl)methoxy)-5-methyl-5a,6,7,8,9,10-hexahydro-5H-4-oxa-3,10a,11,13,14-pentaaza-6,9-methanonaphtho[1,8-ab]heptalen-2-yl)-5-methyl-4-(trifluoromethyl)aniline]	0.433	75.8
Cc1cc(N)c(F)c(-c2nc3c4c(nc(OC[C@@H]5CC[C@H]6COCCN65)nc4c2F)N2C[C@H]4CC[C@H](N4)[C@H]2[C@H](C)O3)c1C(F)(F)F [Compound 97, 2-Fluoro-3-((5S,5aS,6S,9R)-1-fluoro-12-(((6S,8aS)-hexahydro-1H-pyrrolo[2,1-c][1,4]oxazin-6-yl)methoxy)-5-methyl-5a,6,7,8,9,10-hexahydro-5H-4-oxa-3,10a,11,13,14-pentaaza-6,9-methanonaphtho[1,8-ab]heptalen-2-yl)-5-methyl-4-(trifluoromethyl)aniline]	0.37	43.7
Cc1cc(N)c(F)c(-c2nc3c4c(nc(OC[C@@H]5CC[C@H]6COCCN65)nc4c2F)N2C[C@H]4CC[C@H](N4)[C@H]2[C@H](C)O3)c1C1CC1 [Compound 98, 4-Cyclopropyl-2-fluoro-3-((5S,5aS,6S,9R)-1-fluoro-12-(((6S,8aS)-hexahydro-1H-pyrrolo[2,1-c][1,4]oxazin-6-yl)methoxy)-5-methyl-5a,6,7,8,9,10-hexahydro-5H-4-oxa-3,10a,11,13,14-pentaaza-6,9-methanonaphtho[1,8-ab]heptalen-2-yl)-5-methylaniline]	4.25	553
Cc1cc(N)c(F)c(-c2nc3c4c(nc(OC[C@@H]5CC[C@H]6COCCN65)nc4c2F)N2C[C@H]4CC[C@H](N4)[C@H]2[C@H](C)O3)c1C=C(F)F [Compound 99, 4-(2,2-Difluorovinyl)-2-fluoro-3-((5S,5aS,6S,9R)-1-fluoro-12-(((6S,8aS)-hexahydro-1H-pyrrolo[2,1-c][1,4]oxazin-6-yl)methoxy)-5-methyl-5a,6,7,8,9,10-hexahydro-5H-4-oxa-3,10a,11,13,14-pentaaza-6,9-methanonaphtho[1,8-ab]heptalen-2-yl)-5-methylaniline]	2.09	506
Cc1cc(N)c(F)c(-c2nc3c4c(nc(OC[C@@H]5CC[C@H]6COCCN65)nc4c2F)N2C[C@H]4CC[C@H](N4)[C@H]2[C@H](C)O3)c1C(F)(F)C(F)(F)F [Compound 100, 2-Fluoro-3-((5S,5aS,6S,9R)-1-fluoro-12-(((6S,8aS)-hexahydro-1H-pyrrolo[2,1-c][1,4]oxazin-6-yl)methoxy)-5-methyl-5a,6,7,8,9,10-hexahydro-5H-4-oxa-3,10a,11,13,14-pentaaza-6,9-methanonaphtho[1,8-ab]heptalen-2-yl)-5-methyl-4-(perfluoroethyl)aniline]	1.49	495
Cc1cc(N)c(F)c(-c2nc3c4c(nc(OC[C@@H]5CC[C@H]6COCCN65)nc4c2F)N2C[C@H]4CC[C@H](N4)[C@H]2[C@H](C)O3)c1Cl [Compound 101, 4-Chloro-2-fluoro-3-((5S,5aS,6S,9R)-1-fluoro-12-(((6S,8aS)-hexahydro-1H-pyrrolo[2,1-c][1,4]oxazin-6-yl)methoxy)-5-methyl-5a,6,7,8,9,10-hexahydro-5H-4-oxa-3,10a,11,13,14-pentaaza-6,9-methanonaphtho[1,8-ab]heptalen-2-yl)-5-methylaniline]	3.19	906
Cc1cc(N)c(Cl)c(-c2nc3c4c(nc(OC[C@@H]5CC[C@H]6COCCN65)nc4c2F)N2C[C@H]4CC[C@H](N4)[C@H]2[C@H](C)O3)c1C(F)(F)F [Compound 103, 2-Chloro-3-((5S,5aS,6S,9R)-1-fluoro-12-(((6S,8aS)-hexahydro-1H-pyrrolo[2,1-c][1,4]oxazin-6-yl)methoxy)-5-methyl-5a,6,7,8,9,10-hexahydro-5H-4-oxa-3,10a,11,13,14-pentaaza-6,9-methanonaphtho[1,8-ab]heptalen-2-yl)-5-methyl-4-(trifluoromethyl)aniline]	0.86	224
C[C@@H]1Oc2nc(-c3cc(N)c(F)c(Cl)c3C(F)(F)F)c(F)c3nc(OC[C@@]45CCCN4C[C@H](F)C5)nc(c23)N2C[C@H]3CC[C@H](N3)[C@@H]12 [Compound 104, 3-Chloro-2-fluoro-5-((5S,5aS,6S,9R)-1-fluoro-12-(((2R,7aS)-2-fluorotetrahydro-1H-pyrrolizin-7a(5H)-yl)methoxy)-5-methyl-5a,6,7,8,9,10-hexahydro-5H-4-oxa-3,10a,11,13,14-pentaaza-6,9-methanonaphtho[1,8-ab]heptalen-2-yl)-4-(trifluoromethyl)aniline]	0.05	0.71
C[C@@H]1Oc2nc(-c3[nH]c(=O)cc4ccccc34)c(F)c3nc(OC[C@@]45CCCN4C[C@H](F)C5)nc(c23)N2C[C@H]3CC[C@H](N3)[C@@H]12 [Compound 105, 1-((5S,5aS,6S,9R)-1-Fluoro-12-(((2R,7aS)-2-fluorotetrahydro-1H-pyrrolizin-7a(5H)-yl)methoxy)-5-methyl-5a,6,7,8,9,10-hexahydro-5H-4-oxa-3,10a,11,13,14-pentaaza-6,9-methanonaphtho[1,8-ab]heptalen-2-yl)isoquinolin-3(2H)-one]	141	9700
C[C@@H]1Oc2nc(-c3c(C#N)c(N)c(F)c(F)c3C(F)(F)F)c(F)c3nc(OC[C@@]45CCCN4C[C@H](F)C5)nc(c23)N2C[C@H]3CC[C@H](N3)[C@@H]12 [Compound 107, 2-Amino-3,4-difluoro-6-((5S,5aS,6S,9R)-1-fluoro-12-(((2R,7aS)-2-fluorotetrahydro-1H-pyrrolizin-7a(5H)-yl)methoxy)-5-methyl-5a,6,7,8,9,10-hexahydro-5H-4-oxa-3,10a,11,13,14-pentaaza-6,9-methanonaphtho[1,8-ab]heptalen-2-yl)-5-(trifluoromethyl)benzonitrile]	1.39	167
Cc1cc(N)c(F)c(-c2nc3c4c(nc(OC[C@@]56CCCN5C[C@H](F)C6)nc4c2F)N2C[C@H]4CC[C@H](N4)[C@H]2[C@H](C)O3)c1I [Compound 108, 2-Fluoro-3-((5S,5aS,6S,9R)-1-fluoro-12-(((2R,7aS)-2-fluorotetrahydro-1H-pyrrolizin-7a(5H)-yl)methoxy)-5-methyl-5a,6,7,8,9,10-hexahydro-5H-4-oxa-3,10a,11,13,14-pentaaza-6,9-methanonaphtho[1,8-ab]heptalen-2-yl)-4-iodo-5-methylaniline]	0.325	37.6
